Source: patent publication US10793535B2, “Heterocyclic glutaminase inhibitors” (Calithera Biosciences, Inc., priority 2012, dated 2020)
Like-named read-outs stand apart in the source and are kept apart here.

Assays:
[1] = tested on: P493-6 (myc "on") cells; assay: Cell proliferation assay; format: cell-based; conditions: read-out: Cell prolif P493 72 h IC50
Description: P493-6 (myc “on”) cells were maintained in growth media (RPMI-1640, 10% FBS, 2 mM glutamine, 100 units/ml Penicillin and 100 μg/ml streptomycin) at 37° C. with 5% CO2. For compound assay, P493-6 cells were plated in 96-well V-bottom plates on the day of compound addition in 50 μl of growth media at a cell density of 200,000 cells/ml (10,000 cells/well). Compounds were serially diluted in 100% DMSO at 200-times the final concentration. Compounds were diluted 100-fold into growth media and then 50 μl of this mixture was added to cell plates making the final concentration of DMSO 0.5%. Cells were incubated with compound for 72 hrs at 37° C. with 5% CO2 and analyzed for antiproliferative effects either by Cell Titer Glo (Promega) or FACS analysis using the Viacount (Millipore) kit on the Guava instrument.

[2] = tested on: Caco-2 cell monolayers; assay: Caco-2 permeability assay; format: in vitro ADME, human
Excerpt: Caco-2 cells are commonly used in a confluent monolayer on a cell culture insert filter. When cultured in this format and under specific conditions, the cells become differentiated and polarized such that their phenotype, morphologically and functionally resembles the enterocytes lining the small intestine. The cell monolayer provides a physical and biochemical barrier to the passage of small molecules, and is widely used across the pharmaceutical industry as an in vitro model of the human small intestinal mucosa to predict the absorption of orally administered drugs (Hidalgo et al., Gastroenterology, 1989; Artursson, J. Pharm. Sci., 1990). The correlation between the in vitro apparent permeability (P ? app) across Caco-2 monolayers and the in vivo absorption is well established (Artursson et al., Biochem. Biophys. Res. Comm., 1991).
The present assay was used to determine the bidirectional permeability of the compounds of the invention through Caco-2 cell monolayers. Caco-2 cells were grown in confluent monolayers where the media of both the apical (A) and basolateral (B) sides were at pH 7.4. Compounds were dosed at 1 μM in the presence of 200 μM Lucifer Yellow, on the apical side (A→B) or the basolateral side (B→A) for assessment, in duplicate.
The absorption potential of compounds were classified as either Low (P-app<1×10^−6 cm/s) or High (P-app>1×10^−6 cm/s).

[3] = Pharmacokinetic studies in mice; format: in vivo; conditions: female, CD-1, mouse, plasma, po, 50 mg/kg, 50 mg/kg oral
Description: For PK studies performed in mice, female CD-1 mice, age 5-8 weeks, were dosed orally by gavage (10 mL/kg volume) with test compounds. At pre-determined time-points (e.g. 1, 3, and 6 hrs) post-dosing, groups of three mice were sacrificed by CO2 inhalation and blood collected via cardiac puncture. Blood samples were placed into K2 EDTA coated tubes and kept on ice. Samples were centrifuged at 2000×g for 10 minutes at 4° C. and plasma isolated. Plasma was stored at ˜70° C. until bioanalytical analysis.
(§1) The plasma samples were analyzed using Liquid chromatography tandem mass spectrometry (LC/MS/MS) methods. Frozen plasma samples were thawed on ice or room temperature. Aliquotes of study plasma samples and calibration samples prepared in the same matrix as the study samples were quenched in an organic solvent (methanol, acetonitrole or DMF) containing an internal standard. The mixtures were then centrifuged and filtered and the filtrates were injected to an LC/MS/MS system to determine concentrations of test compounds.

[4] = Pharmacokinetic studies in rats; format: in vivo; conditions: female, Sprague-Dawley, plasma; Rat, 50 mg/kg oral, Eudragit L100-55 solid dispersion, Suspension
Description: For PK studies performed in rats, groups of three female Sprague-Dawley Rats, age 7-10 weeks, with jugular vein cannulae were dosed orally by gavage (5-10 mL/kg) with test compounds. Serial blood samples were collected via the jugular vein cannulae at multiple time-points pre and post-dose. Blood samples were placed into K2 EDTA coated tubes on kept on ice. Samples were centrifuged at 2500×g for 10 minutes at 4° C. and plasma isolated. Plasma was stored at ˜70° C. until bioanalytical analysis.
as §1

[5] = Eudragit L100-55 solid dispersion, Suspension

Row | Structure (SMILES) | IC50 ([1]; P493-6, 72 h) [nM] | Significant Efflux [2] | further results
1 | O=C(Cc1ccccc1)Nc1ccc(CCCCc2nnc(NC(=O)Cc3ccccc3)s2)nn1 [Compound 295] | 39 | Yes (efflux ratios being significant when greater than or equal to 3 when the Papp (B→A) was greater than or equal to 1×10^−6 cm/s) | Cmax [3, 5]: 20 nM; Tmax [3, 5]: 6 h
2 | O=C(Cc1ccccc1)Nc1ccc(CCCCc2nnc(NC(=O)C(O)c3cccc(Cl)c3)s2)nn1 (centres unmarked) [Compound 318] | 17 | Yes (efflux ratios being significant when greater than or equal to 3 when the Papp (B→A) was greater than or equal to 1×10^−6 cm/s) | Cmax ([3]; 0.5% CMC/0.1% PS80, Suspension): 10 nM; Tmax ([3]; 0.5% CMC/0.1% PS80, Suspension): 1 h; Cmax ([3]; Capryol PGMC, Suspension): 80 nM; Tmax ([3]; Capryol PGMC, Suspension): 3 h
3 | CC(C)(C)OC(=O)NCc1cccc(CC(=O)Nc2nnc(CCCCc3ccc(NC(=O)Cc4ccccc4)nn3)s2)c1 [Compound 339] | 9 | Yes (efflux ratios being significant when greater than or equal to 3 when the Papp (B→A) was greater than or equal to 1×10^−6 cm/s) | –
4 | O=C(Cc1ccccc1)Nc1ccc(CCCCc2nnc(NC(=O)Cc3ccccn3)s2)nn1 [Compound 354] | 47 | Yes (efflux ratios being significant when greater than or equal to 3 when the Papp (B→A) was greater than or equal to 1×10^−6 cm/s) | –
5 | CC(C(=O)Nc1ccc(CCCCc2nnc(NC(=O)Cc3cccc(CNC(=O)OC(C)(C)C)c3)s2)nn1)c1ccccc1 (centres unmarked) [Compound 436] | 10 | Yes (efflux ratios being significant when greater than or equal to 3 when the Papp (B→A) was greater than or equal to 1×10^−6 cm/s) | –
6 | O=C(Cc1cccc(OC(F)(F)F)c1)Nc1ccc(CCCCc2nnc(NC(=O)C(O)c3cccc(Cl)c3)s2)nn1 (centres unmarked) [Compound 447] | 16 | Yes (efflux ratios being significant when greater than or equal to 3 when the Papp (B→A) was greater than or equal to 1×10^−6 cm/s) | Cmax ([3]; 2% NMP/98% Gelucire, Solution): 1130 nM; Tmax ([3]; 2% NMP/98% Gelucire, Solution): 1 h
7 | O=C(Cc1ccccc1Cl)Nc1ccc(CCCCc2nnc(NC(=O)Cc3ccccc3F)s2)nn1 [Compound 533] | 41 | Yes (efflux ratios being significant when greater than or equal to 3 when the Papp (B→A) was greater than or equal to 1×10^−6 cm/s) | –
8 | O=C(Cc1cccc(OC(F)(F)F)c1)Nc1ccc(CCCCc2nnc(NC(=O)Cc3ccccc3)s2)nn1 [Compound 585] | 70 | Yes (efflux ratios being significant when greater than or equal to 3 when the Papp (B→A) was greater than or equal to 1×10^−6 cm/s) | Cmax ([3]; 1% NMP/99% Gelucire, Solution): 5160 nM; Tmax ([3]; 1% NMP/99% Gelucire, Solution): 1 h; Cmax [3, 5]: 930 nM; Tmax [3, 5]: 3 h; Cmax [4]: 1150 nM; Tmax [4]: 2 h
9 | CC(C(=O)Nc1nnc(CCCCc2ccc(NC(=O)Cc3ccccc3)nn2)s1)c1ccccc1 (centres unmarked) [Compound 616] | 130 | Yes (efflux ratios being significant when greater than or equal to 3 when the Papp (B→A) was greater than or equal to 1×10^−6 cm/s) | –
10 | O=C(Cc1cccc(OC(F)(F)F)c1)Nc1ccc(CCCCc2nnc(NC(=O)Cc3cccc(OC(F)(F)F)c3)s2)nn1 [Compound 660] | 37 | Yes (efflux ratios being significant when greater than or equal to 3 when the Papp (B→A) was greater than or equal to 1×10^−6 cm/s) | –
11 | O=C(Cc1cccc(OC(F)(F)F)c1)Nc1ccc(CCCCc2nnc(NC(=O)Cc3cccc(F)c3)s2)nn1 [Compound 679] | 36 | No | –
12 | O=C(Cc1cccc(OC(F)(F)F)c1)Nc1ccc(CCCCc2nnc(NC(=O)[C@@H](O)c3ccccc3)s2)nn1 [Compound 703] | 12 | Yes (efflux ratios being significant when greater than or equal to 3 when the Papp (B→A) was greater than or equal to 1×10^−6 cm/s) | –
13 | O=C(Cc1cccc(OC(F)(F)F)c1)Nc1ccc(CCCCc2nnc(NC(=O)[C@H](O)c3ccccc3)s2)nn1 [Compound 705] | 32 | Yes (efflux ratios being significant when greater than or equal to 3 when the Papp (B→A) was greater than or equal to 1×10^−6 cm/s) | –
14 | [2H]C([2H])(CCc1nnc(NC(=O)Cc2ccccn2)s1)C([2H])([2H])c1ccc(NC(=O)Cc2cccc(OC(F)(F)F)c2)nn1 [Compound 727] | – | – | IC50 ([1]; 72 h): 12 nM
15 | Cc1cccc(CC(=O)Nc2nnc(CCCCc3ccc(NC(=O)Cc4cccc(OC(F)(F)F)c4)nn3)s2)n1 [Compound 728] | 18 | – | –
16 | COc1cc(CC(=O)Nc2ccc(CCCCc3nnc(NC(=O)Cc4ccccn4)s3)nn2)cc(OC(F)(F)F)c1 [Compound 729] | 26 | – | –
17 | O=C(Cc1cc(O)cc(OC(F)(F)F)c1)Nc1ccc(CCCCc2nnc(NC(=O)Cc3ccccn3)s2)nn1 [Compound 730] | 25 | – | –
